According to patent US12274681B2, “Compositions and methods for reducing skin fat” (Purdue Research Foundation, priority 2016, dated 2025):

Assays:
[1] = tested on: high fat diet-fed C57BL/6J obese and diabetic mice; assay: High fat diet-induced obese and diabetic mouse model; format: in vivo; settings: for anti-diabetes treatment / anti-obesity treatment in a mouse model of obesity: summary statement
[2] = molecular target: ACAT2 (Homo sapiens, UniProt O75908); settings: cited from earlier work
[3] = tested on: murine 3T3-L1 preadipocytes; assay: Lipid accumulation in differentiating adipocytes, Oil Red O staining and spectrometric quantification; format: cell-based
Procedure: Avasimibe solution was prepared by dissolving in dimethyl sulfoxide (DMSO). At day 6, preadipocytes and avasimibe-treated differentiated adipocytes were subjected to Oil Red 0 staining to visualize accumulated intracellular lipids. Oil Red 0 stained lipids were then extracted for spectrometric quantification of lipids. Intracellular lipids were decreased in a dose-dependent manner by up to 60% (FIG. 3A and FIG. 3B).

[4] = tested on: 3T3-L1 adipocytes; assay: Proteomic analysis of adipocytes by LC MS/MS; format: cell-based, Mus musculus; settings: 10 μM
Procedure: 3T3-L1 preadipocytes were induced to differentiate into mature adipocytes with the same culture condition as described elsewhere. […] Avasimibe or DMSO was replaced freshly every 48 h. Each condition was cultured in triplicate. On day 6, adipocytes were washed with 1×PBS and scraped off the culture dishes. Adipocyte cell pellets were collected after centrifugation and subsequently digested with trypsin (Sigma-Aldrich, St. Louis MO, USA) at the Ratio of 1:50 (μg/μg) Trypsin to Protein. The tryptic peptides after trypsin digestion were separated on a nano LC system (1100 Series LC, Agilent Technologies, Santa Clara, CA) as described previously (D'Aquila, et al. 2015). Briefly, peptides were concentrated with Agilent 300SB-C18 enrichment column and separated with C18 reversed phase ZORBAX 300SB-C18 column. High resolution hybrid ion trap mass spectrometer LTQ-Orbitrap LX (Thermo Fisher Scientific, Waltham MA, USA) was employed to identify the peptides in the data-dependent positive acquisition mode. These experiments were done in Bindley Bioscience Center. We used the MaxQuant computational proteomics platform version 1.5.3.17 (Cox and Mann, 2008) to analyze the results from LC MS/MS analysis. The Mus musculus (24754 entries) sequence from UNIPROT retrieved on Sep. 1, 2015 and a common contaminants database were used as our reference databases. MaxQuant was set with parameters as follows: minimum peptides length was set to seven amino acids, and “Match between runs” interval was set to one minute; The FASTA databases were randomized and 1% of protein false discovery rate was allowed; With trypsin digestion, two missed cleavages were accepted; Three modifications per peptide were allowed, including one fixed modification as “Iodoethanol” and variable modifications as “Oxidation (M)” and “Acetyl (Protein N-term)”; Initial precursor was set to 0.07 and fragment mass tolerance set to 0.02 Da; Data were analyzed with “Label-free quantification” (LFQ) checked. The MaxQuant results were used in in-house script to remove all the common contaminant proteins and to calculate the average LFQ intensity values for the biological replicates and log transform [log2(x)]. The missing values were left blank unless indicated. A two tailed student t-test was performed on the LFQ intensity.

[5] = mouse, in vivo, ip, 20 mg/kg
Source text: Tissue- and isoform-specific regulation of ACATs has been proposed to be therapeutic strategy for cholesterol dysregulated diseases, such as atherosclerosis. However, the therapeutic role of ACATs in obesity has never been explored.

[6] = cited from earlier work
[7] = tested on: ACAT; assay: 25-NBD cholesterol-based ACAT assay in adipocytes; format: cell-based
Source text: (§1) Previous studies reported an adipogenesis-dependent increase in cholesterol accumulation in adipocytes. Similarly, adipogenesis was associated with elevated level free cholesterol with little change in CE level.

[8] = tested on: adipocytes; assay: Cholesterol and cholesterol ester accumulation in adipocytes during adipogenesis; format: cell-based
Source text: as §1

[9] = tested on: differentiated 3T3-L1 preadipocytes; assay: Real-time PCR of lipid synthesis and cholesterol uptake genes in adipocytes; format: cell-based, murine
Procedure: To characterize the effect of avasimibe treatment on mRNA levels of genes involved in lipid metabolism and adipocyte function, differentiated 3T3-L1 preadipocytes in the presence or absence of avasimibe (20 μM) for 6 days were subjected to real-time PCR assay for the analysis of expression of genes involved in synthesis of fatty acids and TGs such as PPARγ, sterol regulatory element binding protein 1c (SREBP1c), MGAT1, DGAT2, FAS and SCD-1.
as §1

[10] = tested on: cytochrome P450 (CYP450); settings: Sahi, et al. 2004; cited from earlier work
[11] = tested on: high-fat diet-induced obesity mouse model; assay: Pair-feeding study in high-fat diet-induced obesity mouse model; format: in vivo, mice
Source text: To do this, mice were pair-fed with the amount of food consumed by avasimibe-administrated mice for 8 days.

[12] = tested on: adipocytes; assay: De novo fatty acid synthesis, glucose-d7 with stimulated Raman scattering (SRS) microscopy; format: cell-based; settings: SRS imaging
Source text: Using deuterium labeled glucose-d7, the effect of avasimibe on de novo fatty acid synthesis in adipocytes treated with or without avasimibe was examined. Glucose-d7 incorporated fatty acids were visualized by stimulated Raman scattering (SRS) microscopy.

[13] = tested on: mature adipocytes; assay: Lipid accumulation by Coherent Anti-Stokes Raman Scattering (CARS) microscopy; format: cell-based, murine
[14] = molecular target: T1, ACAT1 (Homo sapiens, UniProt P35610); settings: cited from earlier work
T1 sequence (P35610 1-550): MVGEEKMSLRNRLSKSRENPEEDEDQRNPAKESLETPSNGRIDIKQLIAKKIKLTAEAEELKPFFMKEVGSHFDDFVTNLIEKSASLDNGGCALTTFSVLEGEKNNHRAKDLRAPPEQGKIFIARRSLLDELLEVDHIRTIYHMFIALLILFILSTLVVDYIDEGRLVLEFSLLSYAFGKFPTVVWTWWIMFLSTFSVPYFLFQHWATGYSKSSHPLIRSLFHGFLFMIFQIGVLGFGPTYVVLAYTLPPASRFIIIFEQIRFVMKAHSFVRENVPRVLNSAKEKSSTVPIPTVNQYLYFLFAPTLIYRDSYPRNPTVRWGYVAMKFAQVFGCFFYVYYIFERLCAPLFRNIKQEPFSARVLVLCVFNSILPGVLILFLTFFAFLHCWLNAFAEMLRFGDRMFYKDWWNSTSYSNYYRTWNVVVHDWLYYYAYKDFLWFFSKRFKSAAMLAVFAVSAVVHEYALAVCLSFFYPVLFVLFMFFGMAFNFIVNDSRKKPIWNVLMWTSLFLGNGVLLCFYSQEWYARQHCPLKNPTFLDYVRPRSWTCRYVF

[15] = tested on: SREBP1; assay: Western blot of SREBP1 in adipocytes; format: cell-based
Procedure: Because SREBP1 plays a key role in de novo fatty acids and TG synthesis and the data in FIG. 6 show a potential inhibitory role of avasimibe in suppression of SREBP1-downstream genes involved in fatty acid and TG synthesis, the ability of avasimibe treatment to alter SREBP1 protein expression and de novo fatty acid synthesis in adipocytes was tested.

[16] = tested on: ACAT1; assay: Lentivirus-mediated ACAT1 knockdown in adipocytes (Oil Red O, real-time PCR); format: cell-based, mouse
Procedure: The direct role of ACAT1 on synthesis of fatty acids and TGs in adipocytes by lentivirus-mediated ACAT1 knockdown using its specific shRNA was tested.

[17] = tested on: ACAT2; assay: ACAT2 knockdown in adipocytes (Oil Red O, real-time PCR); format: cell-based, mouse
[18] = daily i.p. 20 mg/kg, about 2-week

ACAT2 (Homo sapiens, UniProt O75908), sequence (O75908 whole entry): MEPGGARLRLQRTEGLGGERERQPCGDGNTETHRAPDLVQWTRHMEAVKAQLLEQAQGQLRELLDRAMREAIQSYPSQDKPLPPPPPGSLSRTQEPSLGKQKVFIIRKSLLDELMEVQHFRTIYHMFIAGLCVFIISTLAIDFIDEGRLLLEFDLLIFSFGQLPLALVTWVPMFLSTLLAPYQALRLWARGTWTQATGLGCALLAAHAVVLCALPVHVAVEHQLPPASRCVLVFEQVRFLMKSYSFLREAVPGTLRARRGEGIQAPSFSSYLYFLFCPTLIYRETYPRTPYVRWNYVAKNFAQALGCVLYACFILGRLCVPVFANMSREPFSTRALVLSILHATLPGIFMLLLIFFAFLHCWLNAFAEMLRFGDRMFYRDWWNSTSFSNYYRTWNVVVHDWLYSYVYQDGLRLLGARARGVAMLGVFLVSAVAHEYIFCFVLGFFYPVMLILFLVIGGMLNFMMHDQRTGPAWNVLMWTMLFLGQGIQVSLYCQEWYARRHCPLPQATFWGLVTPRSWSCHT

Compound: CCCCCCCCCCC(C)(C)C(=O)Nc1c(OC)cc(OC)cc1OC [CI-976, 2,2-Dimethyl-N-(2,4,6-trimethoxyphenyl) dodecanamide]
- anti-diabetes treatment [1]: highly effective
- anti-obesity treatment in a mouse model of obesity [1]: highly effective
- IC50 [2]: < 1000 nM
- lipid accumulation (Oil Red O) ([3]; 0, 5, 15 and 20 μM for 6 days): decrease in lipid accumulation

Compound: CC(C)c1cc(C(C)C)c(CC(=O)NS(=O)(=O)Oc2c(C(C)C)cccc2C(C)C)c(C(C)C)c1 [avasimibe]
- Acyl-CoA dehydrogenase protein level reduction [4]: 56%
- Acyl-CoA synthetase long-chain family member 1 protein level reduction [4]: 86%
- FAS protein level [4]: only identified in the control group
- acetyl-CoA acyltransferase 1 protein level reduction [4]: 61%
- adiponectin protein level reduction [4]: 84%
- carnitine O-acetyltransferase protein level [4]: only identified in the control group
- cytochrome B5 Reductase 3 and superoxide dismutase 1 protein levels [4]: not altered significantly
- cytochrome B5 Type A protein level reduction [4]: 67%
- enoyl CoA hydratase short chain 1 protein level reduction [4]: 64%
- fatty acid binding protein 4 protein level reduction [4]: 64%
- hydroxyacyl-CoA dehydrogenase protein level reduction [4]: 64%
- hydroxysteroid (17-13) dehydrogenase 4 protein level reduction [4]: 38%
- sterol carrier protein 2 downregulation [4]: 36%
- liver toxicity by alanine transaminase (ALT) assay [5]: no noticeable liver toxicity
- safety when administered to rats, dogs, and humans ([6]; in vivo): generally considered safe
- hypercholesterolemia ([6]; oral): effectively lowered
- effect on body weight, food intake and insulin resistance ([6]; orally administrated): no effect
- ACAT activity (fluorescence-labeled CE accumulation) [7]: inhibited the ACAT activity
- CE accumulation in adipocytes [8]: complete inhibition
- cholesterol level in adipocytes [8]: significantly reduced level
- mRNA levels of genes involved in lipid synthesis (PPARγ, SREBP1c, MGAT1, DGAT2, FAS, SCD-1) ([9]; 20 μM for 6 days): marked decrease
- mRNA levels of cholesterol uptake genes SR-BI and CD-36 ([9]; vs control adipocytes): marked decrease
- inhibition of cytochrome P450 (CYP450) [10]: known to inhibit
- blood glucose of pair-fed group relative to avasimibe-treated mice ([11]; 8 days): didn't reach to the level found from avasimibe-treated mice
- fecal energy content ([11]; 8 days): little change
- fecal excretion and fecal energy excretion ([11]; figure legend FIG. 23C, 23D): suppressed
- HOMA-IR values ([1]; 2-week administration): improved
- blood glucose ([1]; 2-week administration): marked reduction
- glucose tolerance ([1]; 2-week administration): improved glucose tolerance
- insulin levels ([1]; 2-week administration): marked reduction
- decrease in food intake ([1]; daily i.p. 20 mg/kg): approximately 50%
- energy expenditure ([1]; daily i.p. 20 mg/kg): reduced energy expenditure
- reduction or suppression in total body weight gain ([1]; daily i.p. 20 mg/kg body weight, about 2-week): about 25%
- white adipose tissue (inguinal, epididymal, retroperitoneal) weight [1, 18]: significant loss
- whole body fat mass [1, 18]: significant loss
- circulating leptin level ([1]; mouse, in vivo): markedly suppressed
- serum CE ([1]; mouse, in vivo): decrease
- serum TG ([1]; mouse, in vivo): decrease
- serum free cholesterol ([1]; mouse, in vivo): decrease
- anti-diabetes treatment [1]: highly effective
- anti-obesity treatment in a mouse model of obesity [1]: highly effective
- respiratory exchange ratio ([1]; vs control mice): reduced respiratory exchange ratio
- LD accumulation and glucose-d7 signal in LDs (de novo fatty acid synthesis) [12]: reduced level
- lipid accumulation by CARS microscopy [13]: inhibited lipid accumulation was confirmed
- IC50 [2]: 2500 nM
- IC50 [14]: 10000 nM
- level of 125 kDa inactive precursor form of SREBP1 [15]: elevated levels
- decrease of intracellular lipids (Oil Red O) ([3]; avasimibe 0, 1, 5, and 20 μM for 6 days, dose-dependent): up to 60%

Compound: ACAT1 shRNA: mouse ACAT1 shRNA sequence (SEQ ID NO:5), lentivirus-mediated ACAT1 knockdown (CCGGCCAACCAGAGACUAAACAUAUCUCGAGAUAUGUUUAGUCUCUGGUUGGUUUUUUG; listed as Mus musculus)
- suppression of lipid accumulation vs control ShRNA adipocytes (Oil Red O) ([16]; ACAT1 knockdown): up to 40%
- mRNA levels of genes involved in lipid synthesis ([16]; ACAT1 knockdown, real-time PCR): marked decrease
- ACAT2 expression level ([16]; ACAT1 shRNA): no influence

Compound: ACAT2 shRNA: mouse ACAT2 shRNA sequence (SEQ ID NO:6), ACAT2 knockdown (CCGGUGCGGUGGUUCAUGAGUAUAUCUCGAGAUAUACUCAUGAACCACCGCAUUUUUUG; listed as Mus musculus)
- mRNA levels of genes involved in TG synthesis [17]: dramatic reduction
- suppression of lipid accumulation vs control ShRNA adipocytes (Oil Red O) [17]: up to 55%
